US8338436B2, “Amorphous form of N-{2-fluoro-5-[3-(thiophene-2-carbonyl)-pyrazolo[1,5-a]pyrimidin-7-yl]-phenyl}-N-methyl-acetamide” (Ferrer International, S.A., priority 2006, dated 2012)

Key:
[1] = Solubility of solid forms of compound (I)
[2] = test system: GABAA (γ-aminobutyric acidA) receptors; assay: GABAA receptor ligand activity; type: binding; conditions: amorphous form, stated to be like crystalline compound (I)
[3] = test system: GABAA (γ-aminobutyric acidA) receptors; conditions: as described in PCT/EP2006/063243 and U.S. 60/692866; cited from earlier work

Structure (SMILES): CC(=O)N(C)c1cc(-c2ccnc3c(C(=O)c4cccs4)cnn23)ccc1F [amorphous form, N-{2-Fluoro-5-[3-(thiophene-2-carbonyl)-pyrazolo[1,5-a]pyrimidin-7-yl]-phenyl}-N-methyl-acetamide]
- solubility of the amorphous form relative to crystalline product ([1]; amorphous versus crystalline product): about twice as high
- ligand of GABAA [2]: potent ligand

Structure (SMILES): CC(=O)N(C)c1cc(-c2ccnc3c(C(=O)c4cccs4)cnn23)ccc1F [compound (I), N-{2-Fluoro-5-[3-(thiophene-2-carbonyl)-pyrazolo[1,5-a]pyrimidin-7-yl]-phenyl}-N-methyl-acetamide]
- ligand of GABAA receptors [3]: potent ligand

Structure (SMILES): CC(=O)N(C)c1cc(-c2ccnc3c(C(=O)c4cccs4)cnn23)ccc1F [crystalline form of compound (I), N-{2-Fluoro-5-[3-(thiophene-2-carbonyl)-pyrazolo[1,5-a]pyrimidin-7-yl]-phenyl}-N-methyl-acetamide]
- solubility ([1]; crystalline form, qualitative statement): very low soluble
